Structures can show the parent of a compound that is named as a salt.
First: Cl.N=C(N)Nc1nc(-c2ccccc2)c2c(O)cccc2n1
Second: C[S+]([O-])c1ccc2nc(NC(=N)N)nc(-c3ccccc3)c2c1 (stereo not shown) [Example 5, N-(6-methanesulfinyl-4-phenylquinazolin-2-yl)guanidine]
The melting point of the first is higher: 310 °C for the first, 175 to 180 °C for the second.

First: CN=C(NC)Nc1nc(-c2ccccc2)c2cc(Cl)ccc2n1.Cl
Second: CS(=O)(=O)c1ccc2nc(NC(=N)N)nc(-c3ccccc3)c2c1 (as salt: HCl) [Example 6, N-(6-methanesulfonyl-4-phenylquinazolin-2-yl)guanidine]
The melting point of the first is higher: 264 to 267 °C for the first, 180 to 185 °C for the second.

Source: patent publication US20040039001A1, “2-guanidino-4-aryl-quinazoline” (priority 2000, published 2004)
